{"source": "patent US20120196899A1", "about": "“METHODS AND PRODUCTS FOR TREATING INFLAMMATION” (Rock Creek Pharmaceuticals, Inc., priority 2010, published 2012)", "key": {"[1]": {"target": "T1, nAChR α4/β2 (Homo sapiens, UniProt P17787+P43681)", "T1 construct": "host or cells: HEK293 cells, transient transfection", "T1 sequence (P17787 26-502)": "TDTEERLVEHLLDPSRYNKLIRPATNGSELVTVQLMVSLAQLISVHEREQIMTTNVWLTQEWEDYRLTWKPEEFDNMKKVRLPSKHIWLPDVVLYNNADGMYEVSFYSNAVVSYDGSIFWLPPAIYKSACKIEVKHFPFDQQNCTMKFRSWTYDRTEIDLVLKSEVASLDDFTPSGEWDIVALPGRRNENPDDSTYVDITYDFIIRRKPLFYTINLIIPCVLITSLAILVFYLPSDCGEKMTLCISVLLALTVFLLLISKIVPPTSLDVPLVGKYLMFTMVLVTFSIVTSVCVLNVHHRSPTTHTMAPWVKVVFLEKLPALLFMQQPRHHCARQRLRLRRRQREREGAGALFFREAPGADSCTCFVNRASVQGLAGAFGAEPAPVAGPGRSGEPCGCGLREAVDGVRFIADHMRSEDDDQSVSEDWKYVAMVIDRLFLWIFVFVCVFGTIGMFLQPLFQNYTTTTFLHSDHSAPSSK", "T1 sequence (P43681 29-627)": "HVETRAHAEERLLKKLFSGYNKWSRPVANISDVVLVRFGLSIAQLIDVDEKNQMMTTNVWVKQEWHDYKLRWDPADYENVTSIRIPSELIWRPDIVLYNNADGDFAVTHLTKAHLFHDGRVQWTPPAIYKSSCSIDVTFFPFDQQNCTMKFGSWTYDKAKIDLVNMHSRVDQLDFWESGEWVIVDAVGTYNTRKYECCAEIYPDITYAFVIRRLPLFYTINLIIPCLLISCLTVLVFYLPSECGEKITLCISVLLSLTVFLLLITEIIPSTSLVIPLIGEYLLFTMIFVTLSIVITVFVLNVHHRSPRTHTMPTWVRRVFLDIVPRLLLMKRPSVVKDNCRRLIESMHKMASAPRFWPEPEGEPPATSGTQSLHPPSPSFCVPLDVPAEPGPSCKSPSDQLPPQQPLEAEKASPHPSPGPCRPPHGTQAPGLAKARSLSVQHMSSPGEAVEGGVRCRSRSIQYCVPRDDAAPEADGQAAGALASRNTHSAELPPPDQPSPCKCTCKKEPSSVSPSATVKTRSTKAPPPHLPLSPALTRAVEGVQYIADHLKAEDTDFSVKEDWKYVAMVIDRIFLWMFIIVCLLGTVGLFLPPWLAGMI", "test": "nAChR α4/β2 channel agonist assay (FLIPR membrane potential)", "type": "cell-based", "details": "30 μM Ach = 100%, HBPS = 0%", "quoted_text": "The following three (3) channels were evaluated: • 1. nAChR α3/β4 (encoded by the human CHRNA3 and CHRNB4 gene and stably expressed in CHO cells); • 2. nAChR α4/β2 (CHRNA4 and CHRNB2 gene and transiently expressed in HEK293 cells); and • 3. nAChR α7 (encoded by the human nicotinic α7 gene coexpressed in CHO cells with the chaperone RIC-3 encoded by the human RIC3 gene).\nThe ability of each test article to act as an agonist, a positive allosteric modulator or antagonist of three nAChR receptor channels was evaluated in the presence of 0.1 atropine. Both test articles were evaluated for responses on each nAChR channel at eight (8) concentrations: 0.3, 1, 3, 10, 30, 100, 300, and 1000 μM (n=4 for each concentration).\nHEK293 or CHO cells were transiently or stably transfected with the appropriate human ion channel cDNAs. Stable transfectants were selected by coexpression with the antibiotic-resistance gene(s) incorporated into the expression plasmid(s). Selection pressure was maintained by including selection antibiotics in the culture medium. HEK293 cells were cultured in Dulbecco's Modified Eagle Medium/Nutrient Mixture F-12 (D-MEM/F-12) supplemented with 10% fetal bovine serum, 100 U/mL penicillin G sodium, 100 g/mL streptomycin sulfate and appropriate selection antibiotics. CHO cells were cultured in Ham's F-12 supplemented with 10% fetal bovine serum, 100 U/mL penicillin G sodium, 100 g/mL streptomycin sulfate and appropriate selection antibiotics.\nFor FLIPR TETRA™ assay, cells were plated in 384-well black wall, flat clear bottom microtiter plates (Type: BD Biocoat Poly-D-Lysine Multiwell Cell Culture Plate) at 20,000 to 30,000 cells per well (384-well plate). Cells were incubated at 37° C. overnight or until the cells reached a sufficient density in the wells (near confluent monolayer) to use in fluorescence assays. For α4β2 assay, cells were incubated at 27° C. for at least 7 hours before use.\nExperiments were performed with either the FLIPR calcium sensitive dye kit (Fluo-8, ABDbioquest, for nAChR α3/β4 and nAChR α7) or FLIPR membrane potential kit (Molecular Devices, for nAChR α4/β2) according to the manufacturer's instructions. Briefly, cells were incubated with 201 dye for 30 min at 37° C. After dye loading period, for the agonist assay, 5 μl of the test, vehicle, or control articles at concentration of 5 times of final concentration were applied to the cells without stimulation. For the positive allosteric modulation (PAM) and antagonist assay, after test article application, the cells were stimulated with either low dose (for PAM) or high dose (for antagonist) of Ach.\nConcentration-response data was fitted to a Hill equation of the following form:\nwhere Base is the response at low concentrations of test article, Max is the maximum response at high concentrations, xhalf is the EC50 or IC50, the concentration of test article producing either half-maximal activation or inhibition, and rate is the Hill coefficient. Nonlinear least squares fits were made assuming a simple one-to-one binding model.\nThe ability of each test article to act as an agonist of the nAChR carried out in the absence of the positive control agonist. The signal elicited in the presence of the positive control agonist (30 μM Ach) was set to 100% and the signal from the vehicle control (HBPS) was set to 0%. Values were considered significant (bold font) if the test article mean was three or more standard deviations above from the vehicle control mean."}, "[2]": {"test": "Hematology, day 15", "type": "in vivo, Sprague-Dawley rats", "details": "for EOSINOPHIL / HCT / HGB / LYMPHOCYTE / MCH / MCHC / MCV / MONOCYTE / NEUTROPHIL SEG / PLATELET COUNT / RBC / RE[…] / WBC: 0.75 mg/kg, group mean", "source_text": "(§1) On day 15, urine was collected on all surviving animals for urinalysis. The animals were euthanized and bled via cardiac puncture. Blood was collected for hematology, clinical chemistry, and coagulation analysis. Tissues were collected, weighed, and stored in 10% neutral-buffered formalin for possible future analysis."}, "[3]": {"test": "Necropsy observations and organ weights, day 15", "type": "in vivo, Sprague-Dawley rats", "protocol": "Body weight and food consumption was measured daily for 14 days. On day 15, urine was collected on all surviving animals. The animals were euthanized and bled via cardiac puncture, and blood was collected for analysis. Tissues were collected, weighed, evaluated for gross abnormalities, and stored in 10% neutral-buffered formalin.\nas §1"}, "[4]": {"test": "Coagulation parameters (aPTT, PT), day 15", "type": "in vivo, Sprague-Dawley rats", "details": "for ACTIVATED PARTIAL THROMBOPLASTIN TIME: 0.75 mg/kg, group mean; for ACTIVE PARTIAL THROMBOPLASTIN TIME: nicotine 0.75 mg/kg, individual animals, tartrate", "source_text": "as §1\nIndividual values for the coagulation parameters activated partial thromboplastin (aPTT) and prothrombin times (PT) for each animal are listed in Table 34 (normal ranges, Table 30). These are summarized in terms of descriptive statistics in Table 25."}, "[5]": {"details": "Group E, 0.75 mg/kg, females, individual animals, tartrate, 0.75 mg/kg"}, "[6]": {"details": "Group E, 0.75 mg/kg, males, individual animals, tartrate, 0.75 mg/kg"}, "[7]": {"details": "female animals, 0.75 mg/kg, group mean"}, "[8]": {"details": "nicotine 0.75 mg/kg single i.v., male rats"}}, "note": "“And” between values parts separate entries of the source, which are not always exact repeats. Identical values can stand only once.", "data": [{"compound": "C1=CCC(c2cccnc2)NC1", "note": "(racemic) [Anatabine (racemate)]", "values": [{"measurement": "Normalized % Activation", "setting": "[1]; test conc 0.3 μM", "result": 0.28, "unit": "%"}, {"measurement": "Normalized % Activation", "setting": "[1]; test conc 1 μM", "result": 5.36, "unit": "%"}, {"measurement": "Normalized % Activation", "setting": "[1]; test conc 3 μM", "result": 10.41, "unit": "%"}, {"measurement": "Normalized % Activation", "setting": "[1]; test conc 10 μM", "result": 12.65, "unit": "%"}, {"measurement": "Normalized % Activation", "setting": "[1]; test conc 30 μM", "result": 9.07, "unit": "%"}, {"measurement": "Normalized % Activation", "setting": "[1]; test conc 100 μM", "result": 16.96, "unit": "%"}, {"measurement": "Normalized % Activation", "setting": "[1]; test conc 300 μM", "result": 50.60, "unit": "%"}, {"measurement": "Normalized % Activation", "setting": "[1]; test conc 1000 μM", "result": 85.29, "unit": "%"}]}, {"compound": "CN1CCCC1c1cccnc1.O=C(O)C(O)C(O)C(=O)O", "note": "(single isomer, unassigned; (-)) [Nicotine, (−) Nicotine hydrogen tartrate, reference compound]", "values": [{"measurement": "EOSINOPHIL", "setting": "[2]; female", "result": 0.0, "unit": "%"}, {"measurement": "HCT", "setting": "[2]; female", "result": 46.7, "unit": "%"}, {"measurement": "HGB", "setting": "[2]; female", "result": 16.0, "unit": "g/dL"}, {"measurement": "LYMPHOCYTE", "setting": "[2]; female", "result": 86.3, "unit": "%"}, {"measurement": "MCH", "setting": "[2]; female", "result": 19.9, "unit": "pg"}, {"measurement": "MCHC", "setting": "[2]; female", "result": 34.2, "unit": "%"}, {"measurement": "MCV", "setting": "[2]; female", "result": 58.7, "unit": "fL"}, {"measurement": "MONOCYTE", "setting": "[2]; female", "result": 1.0, "unit": "%"}, {"measurement": "NEUTROPHIL SEG", "setting": "[2]; female", "result": 12.7, "unit": "%"}, {"measurement": "PLATELET COUNT", "setting": "[2]; female", "result": "1.363e+06", "unit": "µL⁻¹"}, {"measurement": "RBC", "setting": "[2]; female", "result": "8e+06", "unit": "µL⁻¹"}, {"measurement": "RE[…]", "setting": "[2]; female", "result": 5.1, "unit": "%"}, {"measurement": "WBC", "setting": "[2]; female", "result": 10200, "unit": "µL⁻¹"}, {"measurement": "mean corpuscular volume (MCV) and mean corpuscular hemoglobin (MCH)", "setting": "[2]; females, anatabine […], nicotine 0.75 mg/kg single i.v.", "result": "small, but statistically significant decreases"}, {"measurement": "EOSINOPHIL", "setting": "[2]; male", "result": 0.0, "unit": "%"}, {"measurement": "HCT", "setting": "[2]; male", "result": 46.6, "unit": "%"}, {"measurement": "HGB", "setting": "[2]; male", "result": 15.8, "unit": "g/dL"}, {"measurement": "LYMPHOCYTE", "setting": "[2]; male", "result": 85.8, "unit": "%"}, {"measurement": "MCH", "setting": "[2]; male", "result": 20.9, "unit": "pg"}, {"measurement": "MCHC", "setting": "[2]; male", "result": 34.0, "unit": "%"}, {"measurement": "MCV", "setting": "[2]; male", "result": 61.5, "unit": "fL"}, {"measurement": "MONOCYTE", "setting": "[2]; male", "result": 2.5, "unit": "%"}, {"measurement": "NEUTROPHIL SEG", "setting": "[2]; male", "result": 11.8, "unit": "%"}, {"measurement": "PLATELET COUNT", "setting": "[2]; male", "result": "1.3558e+06", "unit": "µL⁻¹"}, {"measurement": "RBC", "setting": "[2]; male", "result": "7.6e+06", "unit": "µL⁻¹"}, {"measurement": "RE[…]", "setting": "[2]; male", "result": 5.2, "unit": "%"}, {"measurement": "WBC", "setting": "[2]; male", "result": 11400, "unit": "µL⁻¹"}, {"measurement": "Tissue Collection Weights: Brain", "setting": "[3]; [5]", "result": "1.77 g and 1.93 g and 1.87 g"}, {"measurement": "Tissue Collection Weights: Heart", "setting": "[3]; [5]", "result": "1.09 g and 1.06 g and 0.83 g"}, {"measurement": "Tissue Collection Weights: Kidneys", "setting": "[3]; [5]", "result": "2.34 g and 2.29 g (2×)"}, {"measurement": "Tissue Collection Weights: Liver", "setting": "[3]; [5]", "result": "9.48 g and 10.11 g and 9.18 g"}, {"measurement": "Tissue Collection Weights: Lungs", "setting": "[3]; [5]", "result": "1.20 g and 1.48 g and 1.28 g"}, {"measurement": "Tissue Collection Weights: Ovaries/uterus", "setting": "[3]; [5]", "result": "1.59 g and 0.92 g and 1.32 g"}, {"measurement": "Tissue Collection Weights: Small intestine", "setting": "[3]; [5]", "result": "0.41 g and 0.40 g and 0.28 g"}, {"measurement": "Tissue Collection Weights: Spleen", "setting": "[3]; [5]", "result": "0.46 g (2×) and 0.76 g"}, {"measurement": "Tissue Collection Weights: Thymus", "setting": "[3]; [5]", "result": "0.54 g and 0.48 g (2×)"}, {"measurement": "Tissue Collection Weights: Brain", "setting": "[3]; [6]", "result": "2.06 g and 1.90 g and 1.84 g and 1.94 g"}, {"measurement": "Tissue Collection Weights: Heart", "setting": "[3]; [6]", "result": "1.20 g and 1.17 g and 1.21 g and 1.42 g"}, {"measurement": "Tissue Collection Weights: Kidneys", "setting": "[3]; [6]", "result": "3.19 g and 3.04 g and 2.87 g and 3.01 g"}, {"measurement": "Tissue Collection Weights: Liver", "setting": "[3]; [6]", "result": "11.97 g and 12.52 g and 12.06 g"}, {"measurement": "Tissue Collection Weights: Lungs", "setting": "[3]; [6]", "result": "1.84 g and 1.49 g and 1.62 g and 1.66 g"}, {"measurement": "Tissue Collection Weights: Prostate", "setting": "[3]; [6]", "result": "0.41 g and 0.28 g (2×) and 0.45 g"}, {"measurement": "Tissue Collection Weights: Small intestine", "setting": "[3]; [6]", "result": "0.71 g and 0.56 g and 0.53 g and 0.40 g"}, {"measurement": "Tissue Collection Weights: Spleen", "setting": "[3]; [6]", "result": "0.81 g and 0.62 g and 0.78 g and 0.86 g"}, {"measurement": "Tissue Collection Weights: Testes", "setting": "[3]; [6]", "result": "3.05 g and 3.13 g and 3.02 g and 2.92 g"}, {"measurement": "Tissue Collection Weights: Thymus", "setting": "[3]; [6]", "result": "0.54 g and 0.46 g and 0.56 g and 0.76 g"}, {"measurement": "Organ Weight Brain", "setting": "[3]; [7]", "result": 1.86, "unit": "g"}, {"measurement": "Organ Weight Heart", "setting": "[3]; [7]", "result": 0.99, "unit": "g"}, {"measurement": "Organ Weight Kidneys", "setting": "[3]; [7]", "result": 2.31, "unit": "g"}, {"measurement": "Organ Weight Liver", "setting": "[3]; [7]", "result": 9.59, "unit": "g"}, {"measurement": "Organ Weight Lungs", "setting": "[3]; [7]", "result": 1.32, "unit": "g"}, {"measurement": "Organ Weight Ovaries/uterus", "setting": "[3]; [7]", "result": 1.28, "unit": "g"}, {"measurement": "Organ Weight Small intestine", "setting": "[3]; [7]", "result": 0.36, "unit": "g"}, {"measurement": "Organ Weight Spleen", "setting": "[3]; [7]", "result": 0.56, "unit": "g"}, {"measurement": "Organ Weight Thymus", "setting": "[3]; [7]", "result": 0.50, "unit": "g"}, {"measurement": "Organ Weight Brain, Mean", "setting": "[3]; [8]", "result": 1.94, "unit": "g"}, {"measurement": "Organ Weight Heart, Mean", "setting": "[3]; [8]", "result": 1.25, "unit": "g"}, {"measurement": "Organ Weight Kidneys, Mean", "setting": "[3]; [8]", "result": 3.03, "unit": "g"}, {"measurement": "Organ Weight Liver, Mean", "setting": "[3]; [8]", "result": 12.69, "unit": "g"}, {"measurement": "Organ Weight Lungs, Mean", "setting": "[3]; [8]", "result": 1.65, "unit": "g"}, {"measurement": "Organ Weight Prostate, Mean", "setting": "[3]; [8]", "result": 0.36, "unit": "g"}, {"measurement": "Organ Weight Small intestine, Mean", "setting": "[3]; [8]", "result": 0.55, "unit": "g"}, {"measurement": "Organ Weight Spleen, Mean", "setting": "[3]; [8]", "result": 0.77, "unit": "g"}, {"measurement": "Organ Weight Testes, Mean", "setting": "[3]; [8]", "result": 3.03, "unit": "g"}, {"measurement": "Organ Weight Thymus, Mean", "setting": "[3]; [8]", "result": 0.58, "unit": "g"}, {"measurement": "ACTIVATED PARTIAL THROMBOPLASTIN TIME", "setting": "[4]; female", "result": 16.9, "unit": "s"}, {"measurement": "ACTIVATED PARTIAL THROMBOPLASTIN TIME", "setting": "[4]; male", "result": 16.3, "unit": "s"}, {"measurement": "aPTT versus vehicle control", "setting": "[4]; nicotine 0.75 mg/kg single i.v., male and female, day 15", "result": "aPTT was significantly lower relative to the vehicle control group"}, {"measurement": "ACTIVE PARTIAL THROMBOPLASTIN TIME", "setting": "[4]; female rats", "result": "18.7 s and 15 s"}, {"measurement": "ACTIVE PARTIAL THROMBOPLASTIN TIME", "setting": "[4]; male rats", "result": "15 s and 16.3 s and 17.6 s and 16.2 s"}]}]}
